The values below come from patent publication US11472791B2 (Incyte Corporation, priority 2019, dated 2022).

SMILES strings stand for the structures.

This test addresses CDK2/Cyclin E1 (Homo sapiens (Human), UniProt P24941). As to the kind of experiment: CDK2/Cyclin E1 HTRF enzyme activity assay. The note with it: 1 mM ATP. The class given is biochemical. The protocol: Assays are conducted in white 384-well polystyrene plates in a final reaction volume of 8 μL. […] HTRF signals are read after 1 hour at room temperature on a PHERAstar FS plate reader (BMG Labtech). Data is analyzed with IDBS XLFit and GraphPad Prism 5.0 software using a three or four parameter dose response curve to determine IC50 for each compound.
Consider `C[C@@H](O)CNCc1ccc(-n2cc(-c3nc(NC4CCN(S(C)(=O)=O)CC4)ncc3C#N)cn2)c(Cl)c1` [Example 291, (R)-4-(1-(2-Chloro-4-(((2-hydroxypropyl)amino)methyl)phenyl)-1H-pyrazol-4-yl)-2-((1-(methylsulfonyl)piperidin-4-yl)amino)pyrimidine-5-carbonitrile], for which the IC50 was < 50 nM.
As for `CS(=O)(=O)N1CCC(Nc2ncc(C(F)(F)F)c(-c3cnn([C@H]4CC[C@H](C#N)CC4)c3)n2)CC1` [Example 34, trans-4-(4-(2-((1-(Methylsulfonyl)piperidin-4-yl)amino)-5-(trifluoromethyl)pyrimidin-4-yl)-1H-pyrazol-1-yl)cyclohexane-1-carbonitrile], the concentration for half-maximal inhibition (IC50) was < 50 nM.
With `CS(=O)(=O)CCNCc1ccc(-n2cc(-c3nc(NC4CCN(S(C)(=O)=O)CC4)ncc3C#N)cn2)c(Cl)c1` [Example 200, 4-(1-(2-Chloro-4-(((2-(methylsulfonyl)ethyl)amino)methyl)phenyl)-1H-pyrazol-4-yl)-2-((1-(methylsulfonyl)piperidin-4-yl)amino)pyrimidine-5-carbonitrile], the IC50 is < 50 nM.
The result for `Cc1cc(CN2CCN(C)C(=O)C2)ccc1-n1cc(-c2nc(NC3CCN(S(=O)(=O)c4cn(C)cn4)CC3)ncc2Cl)cn1` [Example 248, 4-(4-(4-(5-Chloro-2-((1-((1-methyl-1H-imidazol-4-yl)sulfonyl)piperidin-4-yl)amino)pyrimidin-4-yl)-1H-pyrazol-1-yl)-3-methylbenzyl)-1-methylpiperazin-2-one] reads < 50 nM; that for `CN1CCN(Cc2ccc(-n3cc(-c4nc(NC5CCN(S(=O)(=O)c6cn(C)cn6)CC5)ncc4C#N)cn3)c(Cl)c2)CC1` [Example 261, 4-(1-(2-Chloro-4-((4-methylpiperazin-1-yl)methyl)phenyl)-1H-pyrazol-4-yl)-2-((1-((1-methyl-1H-imidazol-4-yl)sulfonyl)piperidin-4-yl)amino)pyrimidine-5-carbonitrile], < 50 nM.
On to `Cc1cc(CN2CCN(C)CC2)ccc1-n1cc(-c2nc(N[C@H]3CCN(S(=O)(=O)c4ccn(C)n4)C[C@H]3F)ncc2C(F)(F)F)cn1` [Example 103, N-((3R,4S)-3-Fluoro-1-((1-methyl-1H-pyrazol-3-yl)sulfonyl)piperidin-4-yl)-4-(1-(2-methyl-4-((4-methylpiperazin-1-yl)methyl)phenyl)-1H-pyrazol-4-yl)-5-(trifluoromethyl)pyrimidin-2-amine], for which the concentration for half-maximal inhibition (IC50) is < 50 nM.
The result for `CS(=O)(=O)N1CCC(Nc2ncc(C#N)c(-c3cnn(-c4ccc(CN[C@@H]5CCC[C@H]5O)cc4Cl)c3)n2)CC1` [Example 186, 4-(1-(2-Chloro-4-((((1R,2R)-2-hydroxycyclopentyl)amino)methyl)phenyl)-1H-pyrazol-4-yl)-2-((1-(methylsulfonyl)piperidin-4-yl)amino)pyrimidine-5-carbonitrile] reads < 50 nM.
As to `CC(C)(O)Cn1cc(-c2nc(NC3CCN(S(=O)(=O)CCCN4CCC(O)CC4)CC3)ncc2C(F)(F)F)cn1` [Example 75, 1-(3-((4-((4-(1-(2-Hydroxy-2-methylpropyl)-1H-pyrazol-4-yl)-5-(trifluoromethyl)pyrimidin-2-yl)amino)piperidin-1-yl)sulfonyl)propyl)piperidin-4-ol], the half-maximal inhibitory concentration (IC50) was < 50 nM.
On to `C[C@]1(O)CC[C@H](NCc2ccc(-n3cc(-c4nc(NC5CCN(S(=O)(=O)C6CC6)CC5)ncc4C#N)cn3)c(Cl)c2)CC1` [Example 284, 4-(1-(2-Chloro-4-((((1r,4r)-4-hydroxy-4-methylcyclohexyl)amino)methyl)phenyl)-1H-pyrazol-4-yl)-2-((1-(cyclopropylsulfonyl)piperidin-4-yl)amino)pyrimidine-5-carbonitrile], for which the half-inhibitory concentration (IC50) was < 50 nM.
Turning to `CNCc1ccc(-n2cc(-c3nc(N[C@H]4CCN(S(=O)(=O)C5CC5)C[C@H]4F)ncc3C#N)cn2)c(Cl)c1` [Example 120, 4-(1-(2-Chloro-4-((methylamino)methyl)phenyl)-1H-pyrazol-4-yl)-2-(((3R,4S)-1-(cyclopropylsulfonyl)-3-fluoropiperidin-4-yl)amino)pyrimidine-5-carbonitrile], the IC50 is < 50 nM.
As for `CS(=O)(=O)N1CCC(Nc2ncc(C#N)c(-c3cnn(-c4ccc(CN[C@]5(C)C[C@H](O)C5)cc4Cl)c3)n2)CC1` [Example 158, 4-(1-(2-Chloro-4-((((1s,3s)-3-hydroxy-1-methylcyclobutyl)amino)methyl)phenyl)-1H-pyrazol-4-yl)-2-((1-(methylsulfonyl)piperidin-4-yl)amino)pyrimidine-5-carbonitrile], the IC50 was < 50 nM.
Then `CN1CCN(CCCS(=O)(=O)N2CC[C@H](Nc3ncc(C(F)(F)F)c(-c4cnn(CC(C)(C)O)c4)n3)[C@H](F)C2)CC1=O` [Example 212, 4-(3-(((3R,4S)-3-Fluoro-4-((4-(1-(2-hydroxy-2-methylpropyl)-1H-pyrazol-4-yl)-5-(trifluoromethyl)pyrimidin-2-yl)amino)piperidin-1-yl)sulfonyl)propyl)-1-methylpiperazin-2-one], with < 50 nM; and `CCN1CCN(Cc2ccc(-n3cc(-c4nc(NC5CCN(S(=O)(=O)c6cn(C)cn6)CC5)ncc4C(F)(F)F)cn3)c(C)n2)CC1` [Example 253, 4-(1-(6-((4-Ethylpiperazin-1-yl)methyl)-2-methylpyridin-3-yl)-1H-pyrazol-4-yl)-N-(1-((1-methyl-1H-imidazol-4-yl)sulfonyl)piperidin-4-yl)-5-(trifluoromethyl)pyrimidin-2-amine], with < 50 nM.
Then `CS(=O)(=O)N1CCC(Nc2ncc(C#N)c(-c3cnn(-c4ccc(CN[C@H]5CC[C@@H](O)C5)cc4Cl)c3)n2)CC1` [Example 188, 4-(1-(2-Chloro-4-((((1S,3R)-3-hydroxycyclopentyl)amino)methyl)phenyl)-1H-pyrazol-4-yl)-2-((1-(methylsulfonyl)piperidin-4-yl)amino)pyrimidine-5-carbonitrile], with < 50 nM; and `COC(=O)N[C@H]1CCC[C@@H]1NCc1ccc(-n2cc(-c3nc(NC4CCN(S(C)(=O)=O)CC4)ncc3C#N)cn2)c(Cl)c1` [Example 281, Methyl ((1,S,2S)-2-((3-chloro-4-(4-(5-cyano-2-((1-(methylsulfonyl)piperidin-4-yl)amino)pyrimidin-4-yl)-1H-pyrazol-1-yl)benzyl)amino)cyclopentyl)carbamate], with < 50 nM; and `CC(C)(O)Cn1cc(-c2nc(NC3CCN(S(=O)(=O)C4CC4)CC3)ncc2Cl)cn1` [Example 56, 1-(4-(5-Chloro-2-((1-(cyclopropylsulfonyl)piperidin-4-yl)amino)pyrimidin-4-yl)-1H-pyrazol-1-yl)-2-methylpropan-2-ol], with < 50 nM.
For the compound `CS(=O)(=O)N1CCC(Nc2ncc(C(F)(F)F)c(-c3cnn(-c4cc(N)ncc4C(F)(F)F)c3)n2)CC1` [Example 37, 4-(1-(2-Amino-5-(trifluoromethyl)pyridin-4-yl)-1H-pyrazol-4-yl)-N-(1-(methylsulfonyl)piperidin-4-yl)-5-(trifluoromethyl)pyrimidin-2-amine], the IC50 was < 50 nM.
As to `CO[C@@H]1CCN(CCCS(=O)(=O)N2CCC(Nc3ncc(C(F)(F)F)c(-c4cnn(CC(C)(C)O)c4)n3)CC2)C1` [Example 220, (R)-1-(4-(2-((1-((3-(3-Methoxypyrrolidin-1-yl)propyl)sulfonyl)piperidin-4-yl)amino)-5-(trifluoromethyl)pyrimidin-4-yl)-1H-pyrazol-1-yl)-2-methylpropan-2-ol], the IC50 was < 50 nM.
Regarding `CS(=O)(=O)N1CCCC(Nc2ncc(C(F)(F)F)c(-c3cnn(C4CCOCC4)c3)n2)C1` (racemic) [Example 19, (±)-N-(1-(Methylsulfonyl)piperidin-3-yl)-4-(1-(tetrahydro-2H-pyran-4-yl)-1H-pyrazol-4-yl)-5-(trifluoromethyl)pyrimidin-2-amine], the half-inhibitory concentration (IC50) was 500 to 1000 nM.
Take `COC1CCN(CCCS(=O)(=O)N2CC[C@H](Nc3ncc(C(F)(F)F)c(-c4cnn(CC(C)(C)O)c4)n3)[C@H](F)C2)CC1` [Example 207, 1-(4-(2-(((3R,4S)-3-Fluoro-1-((3-(4-methoxypiperidin-1-yl)propyl)sulfonyl)piperidin-4-yl)amino)-5-(trifluoromethyl)pyrimidin-4-yl)-1H-pyrazol-1-yl)-2-methylpropan-2-ol]: the half-maximal inhibitory concentration (IC50) was < 50 nM.
The result for `CS(=O)(=O)N1CCC(Nc2ncc(C#N)c(-c3cnn(-c4ccc(CN[C@@H]5CCCC[C@H]5O)cc4Cl)c3)n2)CC1` [Example 178, 4-(1-(2-Chloro-4-((((1R,2R)-2-hydroxycyclohexyl)amino)methyl)phenyl)-1H-pyrazol-4-yl)-2-((1-(methylsulfonyl)piperidin-4-yl)amino)pyrimidine-5-carbonitrile] reads < 50 nM; that for `CN1CCC(n2ncc(-c3nc(NC4CCN(S(C)(=O)=O)CC4)ncc3C(F)(F)F)c2C(F)(F)F)CC1` [Example 18, 4-(1-(1-Methylpiperidin-4-yl)-5-(trifluoromethyl)-1H-pyrazol-4-yl)-N-(1-(methylsulfonyl)piperidin-4-yl)-5-(trifluoromethyl)pyrimidin-2-amine], 50 to 200 nM; that for `CC(C)(O)Cn1cc(-c2nc(NC3CCN(S(=O)(=O)CCCN4CC(O)C4)CC3)ncc2C(F)(F)F)cn1` [Example 225, 1-(3-((4-((4-(1-(2-Hydroxy-2-methylpropyl)-1H-pyrazol-4-yl)-5-(trifluoromethyl)pyrimidin-2-yl)amino)piperidin-1-yl)sulfonyl)propyl)azetidin-3-ol], < 50 nM.
`Cc1cc(CN2CCN(C)CC2)ccc1-n1cc(-c2nc(N[C@H]3CCN(S(C)(=O)=O)C[C@H]3F)ncc2C(F)(F)F)cn1` [Example 101, N-((3R,4S)-3-Fluoro-1-(methylsulfonyl)piperidin-4-yl)-4-(1-(2-methyl-4-((4-methylpiperazin-1-yl)methyl)phenyl)-1H-pyrazol-4-yl)-5-(trifluoromethyl)pyrimidin-2-amine]: the IC50 was < 50 nM.
